According to US10759813B2, “Neprilysin inhibitors” (THERAVANCE BIOPHARMA R&D IP, LLC, priority 2010, dated 2020):

Target: human neprilysin (EC 3.4.24.11; NEP) (Homo sapiens (Human), UniProt P08473)
Experiment: In vitro enzyme inhibition assay at human NEP (fluorogenic peptide substrate)
Assay type: biochemical
Settings: pKi values at human NEP, recombinant human NEP
Outline: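 Recombinant human NEP preincubated 30 min at 37 °C with compound (10 μM down to pM), then 10 μM Mca-D-Arg-Arg-Leu-Dap-(Dnp)-OH in 50 mM HEPES pH 7.5, 100 mM NaCl, 0.01% Tween-20, 10 μM ZnSO4. Stopped after 20 min with acetic acid; fluorescence Ex320/Em405; Ki by nonlinear fit, reported as pKi.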

Sequence of human neprilysin (EC 3.4.24.11; NEP) (P08473 52-750): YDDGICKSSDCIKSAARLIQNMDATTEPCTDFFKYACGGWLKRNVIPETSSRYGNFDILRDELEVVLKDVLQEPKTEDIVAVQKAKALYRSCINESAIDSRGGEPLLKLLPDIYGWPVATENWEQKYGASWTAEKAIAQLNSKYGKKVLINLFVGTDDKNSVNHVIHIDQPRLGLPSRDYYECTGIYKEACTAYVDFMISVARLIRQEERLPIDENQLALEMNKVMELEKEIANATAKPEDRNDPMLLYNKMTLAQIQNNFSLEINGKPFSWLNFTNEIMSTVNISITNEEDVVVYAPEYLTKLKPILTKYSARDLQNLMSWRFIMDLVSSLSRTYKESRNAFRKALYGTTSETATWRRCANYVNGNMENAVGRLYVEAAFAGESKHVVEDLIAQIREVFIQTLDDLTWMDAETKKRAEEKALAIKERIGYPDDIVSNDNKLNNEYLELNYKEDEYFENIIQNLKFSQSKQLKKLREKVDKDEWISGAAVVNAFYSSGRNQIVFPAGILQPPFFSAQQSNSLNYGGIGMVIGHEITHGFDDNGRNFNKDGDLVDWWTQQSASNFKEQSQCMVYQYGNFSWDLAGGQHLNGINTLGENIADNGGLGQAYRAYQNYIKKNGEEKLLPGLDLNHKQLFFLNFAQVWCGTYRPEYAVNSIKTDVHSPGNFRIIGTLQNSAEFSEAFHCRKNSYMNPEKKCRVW

Compound | pKi | Ki [nM]
O=C(N[C@H](Cc1ccc(-c2ccccc2)cc1)C[C@@H](O)C(=O)O)c1cc(C(=O)N2CCC(O)CC2)n[nH]1 [Example 15-48, (2R,4R)-5-Biphenyl-4-yl-2-hydroxy-4-{[5-(4-hydroxypiperidine-1-carbonyl)-2H-pyrazole-3-carbonyl]-amino}-pentanoic acid] | ≥9.0 | –
COc1ccc(OC)c(-c2cc(C(=O)N[C@H](Cc3ccc(-c4ccccc4)cc3)C[C@@H](O)C(=O)O)[nH]n2)c1 [Example 15-80, (2R,4R)-5-Biphenyl-4-yl-4-{[5-(2,5-dimethoxy-phenyl)-2H-pyrazole-3-carbonyl]-amino}-2-hydroxy-pentanoic acid] | ≥9.0 | –
O=C(N[C@H](Cc1ccc(-c2cccc(Cl)c2)cc1)C[C@@H](O)C(=O)O)c1cc(O)n(-c2ccccn2)n1 [Example 18-37, (2R,4R)-5-(3′-Chloro-biphenyl-4-yl)-2-hydroxy-4-[(5-hydroxy-1-pyridin-2-yl-1H-pyrazole-3-carbonyl)-amino]-pentanoic acid] | ≥9.0 | –
O=C(N[C@H](Cc1ccc(-c2cccc(Cl)c2)cc1)C[C@@H](O)C(=O)O)c1c[nH]nn1 [Example 18-2, (2R,4R)-5-(3′-Chlorobiphenyl-4-yl)-2-hydroxy-4-[(1H-[1,2,3]triazole-4-carbonyl)-amino]-pentanoic acid] | ≥9.0 | –
O=C(N[C@H](Cc1ccc(-c2ccccc2)cc1)CC(O)C(=O)O)c1cc(-c2ccc(-c3ccccc3)cc2)[nH]n1 (stereo partly drawn) [Example 15-39, (R)-5-Biphenyl-4-yl-4-[(5-biphenyl-4-yl-1H-pyrazole-3-carbonyl)amino]-2-hydroxy-pentanoic acid] | – | 12.6 to 100
O=C(N[C@H](Cc1ccc(-c2ccccc2)cc1)C[C@@H](O)C(=O)O)c1cc(-c2cccnc2)[nH]n1 [Example 15-21, (2R,4R)-5-Biphenyl-4-yl-2-hydroxy-4-[(5-pyridin-3-yl-1H-pyrazole-3-carbonyl)-amino]-pentanoic acid] | ≥9.0 | –
O=C(N[C@H](Cc1ccc(-c2cccc(Cl)c2)cc1Cl)C[C@@H](O)C(=O)O)c1cnn[nH]1 [Example 21-1, (2R,4R)-5-(3,3′-Dichlorobiphenyl-4-yl)-2-hydroxy-4-[(3H-[1,2,3]triazole-4-carbonyl)-amino]-pentanoic acid] | ≥9.0 | –
C/C(=N\O)c1cc(C(=O)N[C@H](Cc2ccc(-c3ccccc3)cc2)C[C@@H](O)C(=O)O)[nH]n1 [Example 15-111, (2R,4R)-5-Biphenyl-4-yl-2-hydroxy-4-[(5-{1-[(E)-hydroxyimino]-ethyl}-2H-pyrazole-3-carbonyl)-amino]-pentanoic acid] | ≥9.0 | –
O=C(N[C@H](Cc1ccc(-c2cccc(Cl)c2)cc1)C[C@@H](O)C(=O)O)c1ccc(=O)n(-c2ccccc2)n1 [Example 18-49, (2R,4R)-5-(3′-Chlorobiphenyl-4-yl)-2-hydroxy-4-[(6-oxo-1-phenyl-1,6-dihydro-pyridazine-3-carbonyl)-amino]-pentanoic acid] | – | 1.26 to 10
COc1cccc(Cn2nc(C(=O)N[C@H](Cc3ccc(-c4ccccc4)cc3)CC(O)C(=O)O)cc2C(=O)O)c1 (stereo partly drawn) [Example 15-17, 5-((R)-1-Biphenyl-4-ylmethyl-3-carboxy-3-hydroxy-propylcarbamoyl)-2-(3-methoxy-benzyl)-2H-pyrazole-3-carboxylic acid] | – | 12.6 to 100
CC(=O)c1cc(C(=O)N[C@H](Cc2ccc(-c3ccccc3)cc2)C[C@@H](O)C(N)=O)[nH]n1 [Example 15-108, 5-Acetyl-2H-pyrazole-3-carboxylic acid ((1R,3R)-1-biphenyl-4-ylmethyl-3-carbamoyl-3-hydroxypropyl)amide] | – | 12.6 to 100
NC(=O)[C@H](O)C[C@@H](Cc1ccc(-c2ccccc2)cc1)NC(=O)c1cnc(O)nc1 [Example 9, 2-Hydroxypyrimidine-5-carboxylic acid ((1R,3R)-1-biphenyl-4-ylmethyl-3-carbamoyl-3-hydroxypropyl)amide] | – | 12.6 to 100
COCC(=O)Nc1cc(C(=O)N[C@H](Cc2ccc(-c3ccccc3)cc2)CC(O)C(=O)O)[nH]n1 (stereo partly drawn) [Example 15-94, (R)-5-Biphenyl-4-yl-2-hydroxy-4-{[5-(2-methoxy-acetylamino)-2H-pyrazole-3-carbonyl]-amino}-pentanoic acid] | – | 12.6 to 100
CC(C)(O)c1cc(C(=O)N[C@H](Cc2ccc(-c3ccccc3)cc2)C[C@@H](O)C(=O)O)n[nH]1 [Example 8-B, (2R,4R)-5-Biphenyl-4-yl-2-hydroxy-4-{[5-(1-hydroxy-1-methylethyl)-1H-pyrazole-3-carbonyl]amino}pentanoic acid] | ≥9.0 | –
CC(=O)Nc1cccc(-c2cc(C(=O)N[C@H](Cc3ccc(-c4ccccc4)cc3)CC(O)C(=O)O)n[nH]2)c1 (stereo partly drawn) [Example 15-31, (R)-4-{[5-(3-Acetylamino-phenyl)-1H-pyrazole-3-carbonyl]amino}-5-biphenyl-4-yl-2-hydroxypentanoic acid] | – | 1.26 to 10
COCc1cc(C(=O)N[C@H](Cc2ccc(-c3ccccc3)cc2)C[C@@H](O)C(=O)O)n[nH]1 [Example 15-4, (2R,4R)-5-Biphenyl-4-yl-2-hydroxy-4-[(5-methoxymethyl-1H-pyrazole-3-carbonyl)-amino]-pentanoic acid] | – | 1.26 to 10

Compound | pKi | Ki [nM]
CC(=O)c1cc(C(=O)N[C@H](Cc2ccc(-c3ccccc3)cc2Cl)C[C@@H](O)C(=O)O)[nH]n1 [Example 20-7, (2R,4R)-4-[(5-Acetyl-2H-pyrazole-3-carbonyl)-amino]-5-(3-chloro-biphenyl-4-yl)-2-hydroxy-pentanoic acid] | ≥9.0 | –
NC(=O)C1CCN(C(=O)c2cc(C(=O)N[C@H](Cc3ccc(-c4ccccc4)cc3)C[C@@H](O)C(=O)O)[nH]n2)C1 (stereo partly drawn) [Example 15-46, (2R,4R)-5-Biphenyl-4-yl-4-{[5-(3-carbamoylpyrrolidine-1-carbonyl)-2H-pyrazole-3-carbonyl]-amino}-2-hydroxy-pentanoic acid] | ≥9.0 | –
O=C(N[C@H](Cc1ccc(-c2cccc(Cl)c2)cc1)C[C@@H](O)C(=O)O)c1cc(-c2ccccc2Cl)on1 [Example 18-15, (2R,4R)-5-(3′-Chlorobiphenyl-4-yl)-4-{[5-(2-chlorophenyl)-isoxazole-3-carbonyl]-amino}-2-hydroxy-pentanoic acid] | ≥9.0 | –
O=C(N[C@H](Cc1ccc(-c2cc(Cl)ccc2F)cc1)C[C@@H](O)C(=O)O)c1nn(-c2ccccc2)c(=O)[nH]1 [Example 19-20, (2R,4R)-5-(5′-Chloro-2′-fluoro-biphenyl-4-yl)-2-hydroxy-4-[(5-oxo-1-phenyl-4,5-dihydro-1H-[1,2,4]triazole-3-carbonyl)-amino]-pentanoic acid] | ≥9.0 | –
COc1ccccc1-c1ccc(C[C@@H](C[C@H](O)C(=O)O)NC(=O)c2ccc3nnn(O)c3c2)cc1 [Example 23-3, (2S,4S)-2-Hydroxy-4-[(3-hydroxy-3H-benzotriazole-5-carbonyl)-amino]-5-(2′-methoxy-biphenyl-4-yl)-pentanoic acid] | ≥9.0 | –
O=C(Nc1cc(C(=O)N[C@H](Cc2ccc(-c3ccccc3)cc2)CC(O)C(=O)O)[nH]n1)c1ccccn1 (stereo partly drawn) [Example 15-100, (R)-5-Biphenyl-4-yl-2-hydroxy-4-({5-[(pyridine-2-carbonyl)-amino]-2H-pyrazole-3-carbonyl}-amino)-pentanoic acid] | – | 1.26 to 10
CC(=O)Nc1ncc(C(=O)N[C@H](Cc2ccc(-c3ccccc3)cc2)C[C@@H](O)C(=O)O)s1 [Example 12-24, (2R,4R)-4-[(2-Acetylamino-thiazole-5-carbonyl)-amino]-5-biphenyl-4-yl-2-hydroxy-pentanoic acid] | – | 12.6 to 100
CCOc1cc(C(=O)N[C@H](Cc2ccc(-c3cccc(Cl)c3)cc2)C[C@@H](O)C(=O)O)n[nH]1 [Example 18-40, (2R,4R)-5-(3′-Chloro-biphenyl-4-yl)-4-[(5-ethoxy-1H-pyrazole-3-carbonyl)-amino]-2-hydroxy-pentanoic acid] | ≥9.0 | –
Cc1cccc(-c2ccc(C[C@@H](C[C@H](O)C(=O)O)NC(=O)c3ccc4nnn(O)c4c3)cc2)c1 [Example 23-1, (2S,4S)-2-Hydroxy-4-[(3-hydroxy-3H-benzotriazole-5-carbonyl)-amino]-5-(3′-methyl-biphenyl-4-yl)-pentanoic acid] | ≥9.0 | –
CN(C)C(=O)c1cc(C(=O)N[C@H](Cc2ccc(-c3ccccc3)cc2Cl)C[C@@H](O)C(=O)O)[nH]n1 [Example 20-5, (2R,4R)-5-(3-Chloro-biphenyl-4-yl)-4-[(5-dimethylcarbamoyl-2H-pyrazole-3-carbonyl)-amino]-2-hydroxy-pentanoic acid] | ≥9.0 | –
O=C(N[C@H](Cc1ccc(-c2ccccc2)cc1)C[C@@H](O)C(=O)O)c1cc(-c2ccccc2O)on1 [Example 12-21, (2R,4R)-5-Biphenyl-4-yl-2-hydroxy-4-{[5-(2-hydroxy-phenyl)-isoxazole-3-carbonyl]-amino}-pentanoic acid] | ≥9.0 | –
O=C(O)c1cc(C(=O)N[C@H](Cc2ccc(-c3ccccc3)cc2)C[C@@H](O)C(=O)O)on1 [Example 12-14, 5-((1R,3R)-1-Biphenyl-4-ylmethyl-3-carboxy-3-hydroxy-propylcarbamoyl)-isoxazole-3-carboxylic acid] | – | 12.6 to 100
COc1ccccc1-c1ccc(C[C@H](C[C@@H](O)C(=O)O)NC(=O)c2cn(O)nn2)cc1 [Example 19-17, (2R,4R)-2-Hydroxy-4-[(1-hydroxy-1H-[1,2,3]triazole-4-carbonyl)-amino]-5-(2′-methoxy-biphenyl-4-yl)-pentanoic acid] | ≥9.0 | –
O=C(O)c1cccc(Cn2nnc3cc(C(=O)N[C@H](Cc4ccc(-c5ccccc5)cc4)CC(O)C(=O)O)ccc32)c1 (stereo partly drawn) [Example 11-1, 3-[5-((R)-1-Biphenyl-4-ylmethyl-3-carboxy-3-hydroxypropylcarbamoyl)-benzotriazol-1-ylmethyl]-benzoic acid] | – | 1.26 to 10
Cn1nc(C(=O)N[C@H](Cc2ccc(-c3cccc(Cl)c3)cc2)C[C@@H](O)C(=O)O)cc1O [Example 18-35, (2R,4R)-5-(3′-Chloro-biphenyl-4-yl)-2-hydroxy-4-[(5-hydroxy-1-methyl-1H-pyrazole-3-carbonyl)-amino]-pentanoic acid] | ≥9.0 | –
